From patent US9796741B2 (Achillion Pharmaceuticals, Inc., priority 2014, dated 2017)
pIC50: −log10 of the molar value.

Target: Human factor D (Homo sapiens (Human), UniProt P00746)
Assay: Human Factor D Assay
Type: biochemical
Conditions: human factor D 80 nM, substrate Z-L-Lys-SBzl, DTNB
Description: Human factor D (purified from human serum, Complement Technology, Inc.) at 80 nM final concentration is incubated with test compound at various concentrations for 5 minutes at room temperature in 50 mM Tris, 1M NaCl, pH 7.5. A synthetic substrate Z-L-Lys-SBzl and DTNB (Ellman's reagent) are added to final concentrations of 100 μM each. The increase in color is recorded at OD405 nm in a microplate in kinetic mode over 30 minutes with 30 second time points in a spectrofluorimeter. IC50 values are calculated by non-linear regression from the percentage of inhibition of complement factor D activity as a function of test compound concentration.

Chain of Human factor D (P00746 26-253): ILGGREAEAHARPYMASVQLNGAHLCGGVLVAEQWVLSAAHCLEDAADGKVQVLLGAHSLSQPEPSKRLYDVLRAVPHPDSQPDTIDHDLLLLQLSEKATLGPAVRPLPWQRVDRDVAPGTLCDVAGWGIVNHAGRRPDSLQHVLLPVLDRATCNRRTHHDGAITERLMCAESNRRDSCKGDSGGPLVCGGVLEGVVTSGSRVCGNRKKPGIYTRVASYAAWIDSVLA

Row | Structure (SMILES) | pIC50
1 | NC(=O)c1nn(CC(=O)N2C[C@H](F)C[C@H]2C(=O)Nc2cccc(-c3ccccc3Cl)c2F)c2ccc(-c3cn[nH]c3)cc12 [Compound 1] | > 6.00
2 | NC(=O)c1nn(CC(=O)N2C[C@H](F)C[C@H]2C(=O)Nc2cccc(-c3ccccc3Cl)c2F)c2ccc(-c3cncnc3)cc12 [Compound 2] | > 6.00
3 | NC(=O)c1nn(CC(=O)N2C[C@H](F)C[C@H]2C(=O)Nc2cccc(Br)n2)c2ccc(-c3ccc(N4CCOCC4)cc3)cc12 [Compound 3, 1-(2-((2S,4R)-2-((6-Bromopyridin-2-yl)carbamoyl)-4-fluoropyrrolidin-1-yl)-2-oxoethyl)-5-(4-morphlinophenyl)-1H-indazole-3-carboxamide] | > 6.00
4 | NC(=O)c1nn(CC(=O)N2[C@@H]3C[C@@H]3C[C@H]2C(=O)Nc2cccc(Br)n2)c2ccc(-c3cncnc3)cc12 [Compound 4] | > 6.00
5 | NC(=O)c1nn(CC(=O)N2C[C@H](F)C[C@H]2C(=O)Nc2cccc(Br)n2)c2ccc(-c3cncnc3)cc12 [Compound 5, 1-(2-((2S,4R)-2-(6-bromopyridin-2-ylcarbamoyl)-4-fluoropyrrolidin-1-yl)-2-oxoethyl)-5-(pyrimidin-5-yl)-1H-indazole-3-carboxamide] | > 6.00
6 | NC(=O)c1nn(CC(=O)N2[C@@H]3C[C@@H]3C[C@H]2C(=O)Nc2cccc(-c3ccccc3Cl)c2F)c2ccc(-c3cncnc3)cc12 [Compound 6, 1-(2-((1R,3S,5R)-3-(2′-chloro-2-fluorobiphenyl-3-ylcarbamoyl)-2-azabicyclo[3.1.0]hexan-2-yl)-2-oxoethyl)-5-(pyrimidin-5-yl)-1H-indazole-3-carboxamide] | > 6.00
7 | NC(=O)c1nn(CC(=O)N2[C@@H]3C[C@@H]3C[C@H]2C(=O)Nc2cccc(-c3ccccc3Cl)c2F)c2ccc(-c3ncccn3)cc12 [Compound 7, 1-(2-((1R,3S,5R)-3-(2′-chloro-2-fluorobiphenyl-3-ylcarbamoyl)-2-azabicyclo[3.1.0]hexan-2-yl)-2-oxoethyl)-5-(pyrimidin-2-yl)-1H-indazole-3-carboxamide] | > 6.00
8 | NC(=O)c1nn(CC(=O)N2[C@@H]3C[C@@H]3C[C@H]2C(=O)Nc2cccc(OC(F)(F)F)c2F)c2ccc(-c3cncnc3)cc12 [Compound 8, 1-(2-((1R,3S,5R)-3-(2-fluoro-3-(trifluoromethoxy)phenylcarbamoyl)-2-azabicyclo[3.1.0]hexan-2-yl)-2-oxoethyl)-5-(pyrimidin-5-yl)-1H-indazole-3-carboxamide] | > 6.00
9 | NC(=O)c1nn(CC(=O)N2C[C@H](F)C[C@H]2C(=O)Nc2cccc(OC(F)(F)F)c2F)c2ccc(-c3cncnc3)cc12 [Compound 9, 1-(2-((2S,4R)-4-fluoro-2-(2-fluoro-3-(trifluoromethoxy)phenylcarbamoyl)pyrrolidin-1-yl)-2-oxoethyl)-5-(pyrimidin-5-yl)-1H-indazole-3-carboxamide] | > 6.00
10 | NC(=O)c1nn(CC(=O)N2C[C@H](F)C[C@H]2C(=O)Nc2cccc(-c3ccccc3Cl)c2F)c2ccc(-c3cnc(N4CCCC4)nc3)cc12 [Compound 10] | > 6.00
11 | NC(=O)c1nn(CC(=O)N2[C@@H]3C[C@@H]3C[C@H]2C(=O)Nc2cccc(Br)n2)c2ccc(-c3cnc(N4CCCC4)nc3)cc12 [Compound 11] | > 6.00
12 | NC(=O)c1nn(CC(=O)N2C[C@H](F)C[C@H]2C(=O)Nc2cccc(-c3ccccc3Cl)c2F)c2ccc(-c3ccc(F)nc3)cc12 [Compound 12, 1-(2-((2S,4R)-2-((2′-Chloro-2-fluoro-[1,1′-biphenyl]-3-yl)carbamoyl)-4-fluoropyrrolidin-1-yl)-2-oxoethyl)-5-(6-fluoropyridin-3-yl)-1H-indazole-3-carboxamide] | > 6.00
13 | NC(=O)c1nn(CC(=O)N2[C@@H]3C[C@@H]3C[C@H]2C(=O)Nc2cccc(-c3ccccc3Cl)c2F)c2ccc(-c3ccc(F)nc3)cc12 [Compound 13, 1-(2-((lR,3S,5R)-3-(2′-chloro-2-fluorobiphenyl-3-ylcarbamoyl)-2-azabicyclo[3.1.0]hexan-2-yl)-2-oxoethyl)-5-(6-fluoropyridin-3-yl)-1H-indazole-3-carboxamide] | > 6.00
14 | CC(=O)c1cn(CC(=O)N2C[C@H](F)C[C@H]2C(=O)Nc2cccc(Br)n2)c2ccc(-c3cncnc3)cc12 [Compound 14, (2S,4R)-1-(2-(3-acetyl-5-(pyrimidin-5-yl)-1H-indol-1-yl)acetyl)-N-(6-bromopyridin-2-yl)-4-fluoropyrrolidine-2-carboxamide] | > 6.00
15 | CC(=O)c1cn(CC(=O)N2[C@@H]3C[C@@H]3C[C@H]2C(=O)Nc2cccc(-c3ccccc3Cl)c2F)c2ccc(-c3cncnc3)cc12 [Compound 15, (1R,3S,5R)-2-(2-(3-acetyl-5-(pyrimidin-5-yl)-1H-indol-1-yl)acetyl)-N-(2′-chloro-2-fluorobiphenyl-3-yl)-2-azabicyclo[3.1.0] hexane-3-carboxamide] | > 6.00
16 | CC(=O)c1cn(CC(=O)N2C[C@H](F)C[C@H]2C(=O)Nc2cccc(-c3ccccc3Cl)c2F)c2ccc(N3CCN(C(C)=O)CC3)cc12 [Compound 16, (2S,4R)-1-(2-(3-acetyl-5-(4-acetylpiperazin-1-yl)-1H-indol-1-yl)acetyl)-N-(2′-chloro-2-fluorobiphenyl-3-yl)-4-fluoropyrrolidine-2-carboxamide] | > 6.00
17 | CC(=O)c1cn(CC(=O)N2[C@@H]3C[C@@H]3C[C@H]2C(=O)Nc2cccc(Br)n2)c2ccc(-c3cncnc3)cc12 [Compound 17, (1R,3S,5R)-2-(2-(3-acetyl-5-(pyrimidin-5-yl)-1H-indol-1-yl)acetyl)-N-(6-bromopyridin-2-yl)-2-azabicyclo[3.1.0] hexane-3-carboxamide] | > 6.00
18 | NC(=O)c1nn(CC(=O)N2C[C@H](F)C[C@H]2C(=O)NCc2cccc(Cl)c2F)c2cnc(-c3cncnc3)cc12 [Compound 18, 1-(2-((2S,4R)-2-(3-chloro-2-fluorobenzylcarbamoyl)-4-fluoropyrrolidin-1-yl)-2-oxoethyl)-5-(pyrimidin-5-yl)-1H-pyrazolo[3,4-c]pyridine-3-carboxamide] | > 6.00
19 | NC(=O)c1nn(CC(=O)N2C[C@H](F)C[C@H]2C(=O)Nc2cccc(-c3ccccc3Cl)c2F)c2cnc(-c3cncnc3)cc12 [Compound 19, 1-(2-((2S,4R)-2-(2′-chloro-2-fluorobiphenyl-3-ylcarbamoyl)-4-fluoropyrrolidin-1-yl)-2-oxoethyl)-5-(pyrimidin-5-yl)-1H-pyrazolo[3,4-c]pyridine-3-carboxamide] | > 6.00
20 | CC(=O)c1cn(CC(=O)N2C[C@H](F)C[C@H]2C(=O)Nc2cccc(-c3ccccc3Cl)c2F)c2ccc(-c3ccnnc3)cc12 [Compound 20, (2S,4R)-1-(2-(3-Acetyl-5-(pryridazin-4-yl)-1H-indol-1-yl)acetyl)-N-(2′-chloro-2-fluoro-[1,1′-biphenyl]-3-yl)-4-fluoropyrrolidine-2-carboxamide] | > 6.00
21 | COc1ncc(-c2ccc3c(c2)c(C(C)=O)cn3CC(=O)N2C[C@H](F)C[C@H]2C(=O)Nc2cccc(Br)n2)cn1 [Compound 21, (2S,4R)-1-(2-(3-acetyl-5-(2-methoxypyrimidin-5-yl)-1H-indol-1-yl)acetyl)-N-(6-bromopyridin-2-yl)-4-fluoropyrrolidine-2-carboxamide] | > 6.00
22 | CN1CC=C(c2ccc3c(c2)c(C(N)=O)nn3CC(=O)N2C[C@H](F)C[C@H]2C(=O)Nc2cccc(Br)n2)CC1 [Compound 22, 1-(2-((2S,4R)-2-(6-bromopyridin-2-ylcarbamoyl)-4-fluoropyrrolidin-1-yl)-2-oxoethyl)-5-(1-methyl-1,2,3,6-tetrahydropyridin-4-yl)-1H-indazole-3-carboxamide] | > 6.00
23 | NC(=O)c1nn(CC(=O)N2C[C@H](F)C[C@H]2C(=O)Nc2cccc(Br)n2)c2ccc(-c3ccnnc3)cc12 [Compound 25, 1-(2-((2S,4R)-2-(6-bromopyridin-2-ylcarbamoyl)-4-fluoropyrrolidin-1-yl)-2-oxoethyl)-5-(pyridazin-4-yl)-1H-indazole-3-carboxamide] | > 6.00
24 | CC(=O)c1cn(CC(=O)N2C[C@H](F)C[C@H]2C(=O)Nc2cccc(-c3ccccc3Cl)c2F)c2ccc(-c3cnc(N4CCCC4)nc3)cc12 [Compound 26, (2S,4R)-1-(2-(3-acetyl-5-(2-(pyrrolidin-1-yl)pyrimidin-5-yl)-1H-indol-1-yl)acetyl)-N-(2′-chloro-2-fluorobiphenyl-3-yl)-4-fluoropyrrolidine-2-carboxamide] | > 6.00
25 | COc1ncc(-c2ccc3c(c2)c(C(C)=O)cn3CC(=O)N2C[C@H](F)C[C@H]2C(=O)Nc2cccc(-c3ccccc3Cl)c2F)cn1 [Compound 27, (2S,4R)-1-(2-(3-acetyl-5-(2-methoxypyrimidin-5-yl)-1H-indol-1-yl)acetyl)-N-(2′-chloro-2-fluoro-[1,1′-biphenyl]-3-yl)-4-fluoropyrrolidine-2-carboxamide] | > 6.00
26 | COc1ncc(-c2ccc3c(c2)c(C(N)=O)nn3CC(=O)N2C[C@H](F)C[C@H]2C(=O)Nc2cccc(Cl)n2)cn1 [Compound 30, 1-(2-((2S,4R)-2-(6-chloropyridin-2-ylcarbamoyl)-4-fluoropyrrolidin-1-yl)-2-oxoethyl)-5-(2-methoxypyrimidin-5-yl)-1H-indazole-3-carboxamide] | > 6.00
27 | CC(=O)c1cn(CC(=O)N2C[C@H](F)C[C@H]2C(=O)Nc2cccc(-c3ccccc3Cl)c2F)c2ccc(N3CCN(c4ncccn4)CC3)cc12 [Compound 31, (2S,4R)-1-(2-(3-acetyl-5-(4-(pyrimidin-2-yl)piperazin-1-yl)-1H-indol-1-yl)acetyl)-N-(2′-chloro-2-fluorobiphenyl-3-yl)-4-fluoropyrrolidine-2-carboxamide] | > 6.00
